Converted amounts (≈) assume the structure as drawn. A value given as a limit tells only on which side of the number the result lay.

The record followed here is PubChem BioAssay AID1996.

The conditions of this data set: buffer; pH 7.4; 200.0 µM.
In the case of `O=C(NC(=S)Nc1ccccc1N1CCCC1)c1ccco1`, the solubility (kinetic) worked out at 25.3 µg/mL (≈ 80.2 µM).

In turn, `CCOC(=O)C1(CCc2ccccc2)CCN(CC(O)CO)CC1` (configuration not stated) yielded a kinetic solubility of 39.8 µg/mL (≈ 119 µM). In turn, `C/C=C/C=C/C(=O)OCC(=O)Nc1ccc(Cl)cc1` returned a kinetic solubility of 6.2 µg/mL (≈ 22.2 µM). In the case of `CNC(=O)c1ncoc1-c1ccc(Cl)cc1`, the solubility (kinetic) came out at 33.8 µg/mL (≈ 143 µM).

As to `CCOc1cc(OCC)cc(C(=O)NCc2ccco2)c1`, the solubility (kinetic) was 5.5 µg/mL (≈ 19 µM).

For `CCOc1ccc(NC(=O)c2[nH]c(C)c(C(C)=O)c2C)cc1`, the kinetic solubility turned out to be 3.4 µg/mL (≈ 11.3 µM). Compared with the last compound, the solubility kinetic is about 1.6-fold lower. Compound `Cl.OCCN1CCN(CC/C=C2/c3ccccc3Sc3ccc(C(F)(F)F)cc32)CC1` registered a kinetic solubility of 60.1 µg/mL. With `CCCCOc1ccc(N2CC(C(=O)NCc3ccco3)CC2=O)cc1` (configuration not stated), the solubility (kinetic) was 12.6 µg/mL (≈ 35.4 µM). `Cc1nc2ccc(NC(=O)c3ccco3)cc2nc1C` had a kinetic solubility above 40.1 µg/mL. With `Cc1ccc(S(=O)(=O)N2CCOCC2)cc1C(=O)NC1=NCCS1`, the kinetic solubility is above 55.4 µg/mL. As for `O=C(CCc1ccccc1)NCc1ccc(F)cc1`, the solubility (kinetic) was determined as 34.1 µg/mL (≈ 133 µM). The compound `Cc1ccnc(NC(=O)CNC(=O)c2ccc(C)s2)c1` registered a kinetic solubility above 43.4 µg/mL.

Compound `CCN(Cc1ccncc1)C(=O)c1ccc(Br)o1` displayed a kinetic solubility above 46.4 µg/mL. To `C[C@H](NS(=O)(=O)c1ccccc1)C(=O)N1CCN(C(c2ccccc2)c2ccccc2)CC1` belongs 16.2 µg/mL (≈ 34.9 µM); to `CC(/C=C1\SC(=S)N(CC(=O)O)C1=O)=C\c1ccccc1`, above 47.9 µg/mL; to `O=c1c2c([N+](=O)[O-])cc([N+](=O)[O-])cc2nc2ccccn12`, 3.2 µg/mL (≈ 11.2 µM). The same measure for `Cc1ccc(CC2SC(N)=NC2=O)cc1` (configuration not stated): above 33 µg/mL; for `COc1ccc(S(=O)(=O)NCC2CCCO2)cc1Cl` (configuration not stated): 34.2 µg/mL (≈ 112 µM); for `Cc1cccc(NC(=O)COC(=O)c2ccc([N+](=O)[O-])o2)c1C`: 17.2 µg/mL (≈ 54 µM).

The compound `CN(C)C(=O)Oc1ccnc2cc(Cl)ccc12` had a solubility (kinetic) above 37.6 µg/mL. Consider `CN(C)CCNc1cnn(-c2ccccc2)c(=O)c1Cl`, for which the solubility (kinetic) was above 43.9 µg/mL. `CNC(=S)NCCc1c[nH]c2ccc(OC)cc12` displayed a solubility (kinetic) above 39.5 µg/mL. In turn, `O=C(Nc1sc2c(c1C(=O)O)CCC2)c1cccc(Cl)c1` gave a kinetic solubility above 48.3 µg/mL. With `Cc1c[nH]c(=O)c([N+](=O)[O-])c1`, the kinetic solubility was above 23.1 µg/mL. To `COc1ccc(F)cc1S(=O)(=O)n1cnc2ccccc21` belongs 28.3 µg/mL (≈ 92.4 µM). `CC(C)(C)C(=O)Nc1nnc(SCC(=O)NC2CC2)s1`: the solubility (kinetic) was above 47.2 µg/mL. As to `O=C1NC(c2ccccc2)Oc2ccccc21` (configuration not stated), the kinetic solubility turned out to be 22.9 µg/mL (≈ 102 µM). `COc1ccc(COc2cccnc2N)cc1` returned a solubility (kinetic) of 20.1 µg/mL (≈ 87.3 µM). This solubility kinetic and that of the compound before are within 1.5-fold of each other. With `COc1ccccc1C/C(N)=N/OC(=O)COc1cccc(C)c1C`, the kinetic solubility amounted to 8.2 µg/mL (≈ 23.9 µM). `O=C(Nc1ccc2c(c1)CCC2)Nc1ccccc1Cl`: the solubility (kinetic) is below 0.3 µg/mL. `CN(Cc1ccc(F)cc1Cl)S(=O)(=O)c1cccs1` gave a solubility (kinetic) of 6.8 µg/mL (≈ 21.3 µM). `Cc1cccc(NC(=O)NC2(C)CCS(=O)(=O)C2)c1` (configuration not stated): the solubility (kinetic) was above 42.4 µg/mL. `Cc1c(C(=O)N2CCOCC2)sc(NC(=O)C(C)C)c1C#N` displayed a solubility (kinetic) above 48.2 µg/mL. On to `Cc1cccc(C(=O)OCC(=O)NC23CC4CC(CC(C4)C2)C3)c1O`, for which the kinetic solubility turned out to be 8.9 µg/mL (≈ 25.9 µM).

Compound `COc1ccc(OC)c(C(C)NC(=O)C23CC4CC(CC(C4)C2)C3)c1` (configuration not stated) returned a solubility (kinetic) of 0.8 µg/mL (≈ 2.33 µM). In turn, `CC12CCC(C(=O)Nc3nc4ccccc4s3)(OC1=O)C2(C)C` (configuration not stated) displayed a kinetic solubility of 34.7 µg/mL (≈ 105 µM). For `O=C(c1ccncc1)N1CCN(S(=O)(=O)c2ccc(F)cc2)CC1`, the kinetic solubility was above 52.4 µg/mL. `CCc1cccc(C)c1NS(=O)(=O)c1cccs1`: the solubility (kinetic) was found to be 14.6 µg/mL (≈ 51.9 µM).

Compound `COc1ccccc1Oc1coc2cc(OCC(N)=O)ccc2c1=O` came in with a kinetic solubility of 47.8 µg/mL (≈ 140 µM). This solubility kinetic is about 3.3-fold higher than that of the compound before.

As to `CC(=O)NC(C)(CC(=O)c1ccccc1)c1ccccc1` (configuration not stated), the solubility (kinetic) is above 42.2 µg/mL. With `CNCc1sccc1C.Cl`, the kinetic solubility was above 26.7 µg/mL.

Compound `Cc1oc2c(cc(NS(=O)(=O)c3ccc(Cl)cc3)c3ccccc32)c1C(=O)O` displayed a solubility (kinetic) above 62.4 µg/mL. The same measure for `O=C(Nc1ccc2c(c1)OCO2)C1CC(=O)N(c2ccccc2)C1` (configuration not stated): 3.3 µg/mL (≈ 10.2 µM).

As for `O=C1CN(C(=O)CNCc2ccccc2)c2ccccc2N1`, the kinetic solubility amounted to 33.9 µg/mL (≈ 115 µM). This solubility kinetic lies about 10-fold higher than the previous one. `O=C(Cc1c(Cl)cccc1Cl)OCc1ccccn1`: the kinetic solubility was 40.1 µg/mL (≈ 135 µM). The solubility kinetic values of the last two compounds are within 1.5-fold of each other.

As for `CCn1c(NCc2ccc(OC)cc2)nc2ccccc21`, the kinetic solubility is above 42.2 µg/mL.

In turn, `O=C(NC(=O)c1ccccc1O)c1ccc2c(c1)CCO2` returned a solubility (kinetic) above 42.5 µg/mL. `C=CCc1ccccc1OCC(O)CN1CCOCC1` (configuration not stated): the kinetic solubility was above 41.6 µg/mL.

`CC(=O)Nc1ccc(NC(=O)C2c3ccccc3Oc3ccccc32)cc1` displayed a solubility (kinetic) of 1.1 µg/mL (≈ 3.07 µM). Compound `S=C1NCN(Cc2ccco2)CN1c1cccc2ccccc12` showed a kinetic solubility above 48.5 µg/mL.

`CC(=O)N/C(=C\c1ccc(C)o1)C(=O)NCc1ccccc1`: the solubility (kinetic) was above 44.8 µg/mL. As for `COc1ccccc1C1CCN(c2ccc(CO)cc2[N+](=O)[O-])CC1`, the solubility (kinetic) was 7.8 µg/mL (≈ 22.8 µM).
